Results from patent publication US6365616B1, “Methimazole derivatives and tautomeric cyclic thiones to treat autoimmune diseases” (Sentron Medical, Inc., priority 1998, dated 2002).

Experiments:
[1] = system: γ-IFN-increased protein/DNA complex with DRα 5′-flanking region probe; assay: Gel shift (EMSA) with 137 class II probe, extracts from γ-IFN-treated FRTL-5 cells; format: cell-based, rat; conditions: for % inhibition of IFN-increased complex formation: 137 class II probe, γ-IFN-treated 5H cells
Procedure: Cells were grown in 6H medium with 5 % calf serum for 6-7 days to 70-80% confluence, then shifted to 5H medium with 5 % calf serum for 5 days. TSH (1×10^−10 M), gamma-interferon (100 U/ml), MMI (5 mM), and different concentrations of MMI derivatives or tautomeric cyclic thiones (0.0001 to 10 mM) were added as appropriate for […]. Cells were then harvested and extracts were made by a modification of a method of Dignam, J., et al. Methods in Enzymology, 101:582-598 (1983). In brief, cells were harvested by scraping after being washed twice with cold phosphate-buffer saline (PBS). Subsequently they were pelleted, washed in cold PBS and then pelleted again. The pellet was resuspended in Dignam buffer C (20 mM Hepes buffer at pH 7.9, 1.5 mM MgCl2, 0.42 M NaCl, 25% glycerol, 0.5 mM dithiotreitol (DTT), 0.5 mM phenylmethylsulfonylfluoride (PMSF), 1 […] pepstatin). The final NaCl concentration was adjusted on the basis of cell pellet volume to 0.42 M and cells were lysed by repeated cycles of freezing and thawing. Extracts were then centrifuged at 10,000×g at 4° C. for 20 min. The supernatant was recovered, aliquoted and stored at −70° C.
Cell extracts to perform class II gel shift studies were prepared exactly as for class I studies (Dignam et al., ibid, 582-598 (1983); Giuliani C, et al., J. Biol. Chem. 270: 11453-11462 (1995); Saji M, et al., J. Biol. Chem. 272: 20096-20107 (1997); Montani, V., et al., Endocrinology 139: 280-289 (1998a); Montani, V., et al., Endocrinology 139: 290-302 (1998b)), with the exception that the extracts were from γ-interferon treated cells, usually 100 U/ml interferon for 24 to 48 hours. Similarly, electrophoretic mobility shift assays (EMSA) were performed in the same way. Oligonucleotides used for EMSA were synthesized (Operon Technologies, Inc.) or were purified from 2 % agarose gels using either QIAEX (Qiagen, Chatsworth, Calif.) or Jet Sorb (Genomed) following restriction enzyme treatment of chimeric HLA-DRα-CAT constructs (Montani et al., 1998a, b). The oligonucleotides were dephosphorylated with calf intestinal alkaline phosphatase, labeled with […] or with [γ-^32P]ATP using T4 polynucleotide kinase, then purified on an 8% native polyacrylamide gel (Giuliani C, et al., ibid, 11453-11462 (1995); Saji M, et al., ibid, 20096-20107 (1997); Sambrook J, et al., ibid, 2:11.23-11.44 (1989); Montani, V., et al., ibid, 280-289 (1998a), 290-302 (1998b)).
Binding reactions for class II EMSA used similar conditions as well. They were carried out in a volume of 20 μl for 30 min at room temperature. The reaction mixtures contained 1.5 fmol of [^32P]DNA, 3 μg cell extract and 1.5 to 3 μg poly(di-dC) in 10 mM Tris-Cl at pH 7.9, 1 mM MgCl2, 1 mM DTT, 1 mM EDTA, and 5% glycerol. Where indicated, unlabeled double- or single-stranded oligonucleotides were added to the binding reaction as competitors and incubated with the extract for 20 min at room temperature prior to the addition of labeled DNA. Similarly, in experiments using antiserum, extracts were also incubated in the same buffer containing antiserum or normal rabbit serum for 20 min at room temperature before being processed as above. Following incubations, reaction mixtures were subjected to electrophoresis on 3.5 or 5 % native polyacrylamide gels at 160 V in 0.5xTBE, at room temperature, for 1.5 to 2 h. Gels were dried and autoradiographed at -80° C overnight unless otherwise noted.
FIG. 7 depicts the effect of MMI on the ability of γ-IFN to increase the formation of protein/DNA complexes with the […] DR α5′-flanking region probe. The radiolabeled probe is the same as that used and diagrammatically presented in FIG. 6; it contains −137 bp to +45 bp of the 5′-flanking region of DRα-CAT chimera. Extracts were from FRTL-5 rat thyroid cells grown to near confluency in TSH, maintained 6 days in SH medium, then treated with 100 U/ml γ-IFN, 5 mM MMI, or both for the last 48 h before the experiment was terminated. […]

[2] = system: MHC class I antigen expression; assay: Flow cytometry of IFN-increased class I antigen expression in FRTL-5 cells; format: cell-based, rat; conditions: 100 U/ml γ-interferon, 6H medium (TSH), 40 hours
Procedure: In this experiment 10^6 cells were incubated with MHC class II or MHC class I-specific antibodies as described (Montani, V., et al., ibid (1998b); Saji, M., et al., ibid (1992a); Balducci-Silano, P. L., et al., Endocrinology 139:2309-2313 (1998)). After 30 min on ice, cells were washed with phosphate buffered saline at pH 7.4 and incubated for 30 min with fluorescein-isothiocyanate (FITC)-conjugated antibodies then analyzed by flow cytometry on a FACScan Cytometer using CellQuest software (Becton Dickinson).
The concentration needed to achieve suppression of the interferon induced class I or class II surface expression was determined by testing different concentrations of the compounds (Table 18). Like all other assays, the order of effectiveness was compound 10>11>7 or 8>2>MMI>3.

Cc1cnc(S)n1C [Compound 9, 5-Methylmethimazole]
% inhibition of IFN-increased complex formation ([1]; 10 μM): 0% | % inhibition of IFN-increased complex formation ([1]; 100 μM): 0% | % inhibition of IFN-increased complex formation ([1]; 1 mM): 25 ± 15% | % inhibition of IFN-increased complex formation ([1]; 5 mM): 40 ± 20%

Cc1ncc([N+](=O)[O-])n1CCO [Compound 2, 2-Methyl-5-nitro-1-imidazole ethanol]
% inhibition of IFN-increased complex formation ([1]; 10 μM): 0% | % inhibition of IFN-increased complex formation ([1]; 100 μM): 0% | % inhibition of IFN-increased complex formation ([1]; 1 mM): 55 ± 14% | suppression of interferon-induced class II protein/DNA complexes compared with MMI (FIG. 8) ([1]; 1 mM): significantly more effective suppressors than MMI | % inhibition of IFN-increased complex formation ([1]; 5 mM): 95 ± 10% | Concentration to inhibit IFN-increased antigen expression, Class I [2]: 500 ± 1400 µM

CSc1nccn1C [Compound 7, S-Methylmethimazole]
% inhibition of IFN-increased complex formation ([1]; 10 μM): 0% | % inhibition of IFN-increased complex formation ([1]; 100 μM): 16 ± 11% | % inhibition of IFN-increased complex formation ([1]; 1 mM): 74 ± 13% | suppression of interferon-induced class II protein/DNA complexes compared with MMI (FIG. 8) ([1]; 1 mM): significantly more effective suppressors than MMI | Concentration to inhibit IFN-increased antigen expression, Class I [2]: 424 ± 31 µM

Cn1c(-c2ccccc2)cnc1S [Compound 10, 5-Phenylmethimazole]
% inhibition of IFN-increased complex formation ([1]; 10 μM): 35 ± 15% | % inhibition of IFN-increased complex formation ([1]; 100 μM): 78 ± 10% | % inhibition of IFN-increased complex formation ([1]; 1 mM): 95 ± 16% | Concentration to inhibit IFN-increased antigen expression, Class I [2]: 40 ± 10 µM

Sc1ncc[nH]1 [Compound 3, 2-Mercaptoimidazole]
% inhibition of IFN-increased complex formation ([1]; 10 μM): 0% | % inhibition of IFN-increased complex formation ([1]; 100 μM): 0% | % inhibition of IFN-increased complex formation ([1]; 1 mM): 0% | % inhibition of IFN-increased complex formation ([1]; 5 mM): 0% | Concentration to inhibit IFN-increased antigen expression, Class I [2]: No Inhibition

Cn1ccn(C)c1=S [Compound 8, N-Methylmethimazole]
% inhibition of IFN-increased complex formation ([1]; 10 μM): 0% | % inhibition of IFN-increased complex formation ([1]; 100 μM): 21 ± 18% | % inhibition of IFN-increased complex formation ([1]; 1 mM): 86 ± 14% | suppression of interferon-induced class II protein/DNA complexes compared with MMI (FIG. 8) ([1]; 1 mM): significantly more effective suppressors than MMI | Concentration to inhibit IFN-increased antigen expression, Class I [2]: 356 ± 70 µM

Sc1nc2ccccc2[nH]1 [Compound 4, 2-Mercaptobenzimidazole]
% inhibition of IFN-increased complex formation ([1]; 10 μM): 0% | % inhibition of IFN-increased complex formation ([1]; 100 μM): 5% | % inhibition of IFN-increased complex formation ([1]; 1 mM): 65 ± 15% | % inhibition of IFN-increased complex formation ([1]; 5 mM): Insol

Cc1ccc2[nH]c(S)nc2c1 [Compound 6, 2-Mercapto-5-methylbenzimidazole]
% inhibition of IFN-increased complex formation ([1]; 10 μM): 0% | % inhibition of IFN-increased complex formation ([1]; 100 μM): 0% | % inhibition of IFN-increased complex formation ([1]; 1 mM): 35 ± 18% | % inhibition of IFN-increased complex formation ([1]; 5 mM): Insol

Cn1ccnc1S [Compound 1, 1-Methylimidazole-2-thiol]
% inhibition of IFN-increased complex formation ([1]; 10 μM): 0% | % inhibition of IFN-increased complex formation ([1]; 100 μM): 0% | % inhibition of IFN-increased complex formation ([1]; 1 mM): 10 ± 5% | % inhibition of IFN-increased complex formation ([1]; 5 mM): 85 ± 12% | Concentration to inhibit IFN-increased antigen expression, Class I [2]: 5000 µM

O=[N+]([O-])c1ccc2[nH]c(S)nc2c1 [Compound 5, 2-Mercapto-5-nitrobenzimidazole]
% inhibition of IFN-increased complex formation ([1]; 10 μM): 0% | % inhibition of IFN-increased complex formation ([1]; 100 μM): 0% | % inhibition of IFN-increased complex formation ([1]; 1 mM): 45 ± 21% | % inhibition of IFN-increased complex formation ([1]; 5 mM): Insol
